Here are results for 25 molecules from article PMC9246256, “Structure-based optimization of type III indoleamine 2,3-dioxygenase 1 (IDO1) inhibitors” (Journal of Enzyme Inhibition and Medicinal Chemistry, 2022).

For series [1], the target named is T1, purified recombinant IDO1 (Homo sapiens, UniProt P14902).
T1 construct: Full-length human IDO1 gene was cloned into the pET-28a vector; inferred from pET-28a vector and HisTrap purification; made in house; host or cells: E. coli Rosetta (DE3)
As to the kind of experiment: Enzymatic IDO1 inhibition assay (ascorbate/methylene blue reduction system, HPLC detection of kynurenine). The format is biochemical. Conditions: for IC50: enzymatic, L-Trp 100 µM, 0.01% Triton X-100, 5% DMSO, 20 min at room temperature, pH 6.5, duplicates, read-out: IC50 [ μ M] (SD); for LE [kcal/mol/HA]: ligand efficiency, LE = -RT log(IC50)/number of heavy atoms, from enzymatic IC50.
Method: Enzymatic IC50 values were measured with the ascorbate/methylene blue reduction system[85] in presence of a non-ionic detergent to reduce compound aggregation as described before[28]. Kynurenine and L-Trp concentrations were determined by HPLC through UV detection.
Full-length human IDO1 gene was cloned into the pET-28a vector and expressed in E. coli Rosetta (DE3) cells. […] The culture was harvested and frozen at −80 °C until further use. The frozen cells were lysed by sonication in 20 mM Tris pH 7, 400 mM NaCl, 1 mM MgCl2, 20 mM imidazole, 1 mM DTT, 0.5 mg/mL Lysozyme and Protease inhibitor. After centrifugation, the supernatant was loaded into a HisTrap HP column pre-equilibrated with buffer containing 20 mM Tris pH 7, 500 mM NaCl and 20 mM imidazole, and eluted with the same buffer containing 500 mM imidazole. Fractions containing IDO1 were pooled, concentrated, and injected on a size exclusion chromatography column (HiLoad Superdex S75 16/60) to increase purity. hIDO1 fractions were concentrated to 20 mg/mL in 20 mM Tris pH 7 and 150 mM NaCl.
The enzymatic inhibition assays were performed as described by Takikawa et al.[130] with some modifications. Briefly, the reaction mixture (100 µL) contained potassium phosphate buffer (100 mM, pH 6.5) ascorbic acid (20 mM), catalase (400 units/mL), methylene blue (10 µM), purified recombinant IDO1 (2.5 ng/µL), L-Trp (100 µM), Triton X-100 (0.01%) and DMSO (5 µL). The inhibitors were serially diluted 3-fold for at least 8 different concentrations. After incubation at room temperature for 20 min, the reaction was stopped in its linear phase by addition of trichloroacetic acid solution (40 mL, 30% w/v), and the samples were incubated at 50 °C for 30 min. After centrifugation, 80 µl of supernatant from each well were used for HPLC analysis. The mobile phase for HPLC analysis was composed of 50% (v/v) of methanol and 50% of sodium citrate buffer (40 mM, pH 2.4) containing 400 µM sodium dodecyl sulphate. […] All assays were carried out in duplicates. The activity (Act) of each compound was calculated as Act = RT log(IC50) in analogy to the relation between the binding free energy and the Ki value. The ligand efficiency (LE) was calculated as LE = −Act/NHA, where NHA is the number of non-hydrogen atoms (heavy atoms) in the compound.

A further series has as its system HEK 293 T cells. As to the kind of experiment: Cell viability / cellular toxicity (DAPI staining, cytometry). The format is cell-based, human. Conditions: compound 200 µM, 7 h. As to the method: (§1) We tested the cellular hIDO1 inhibitory activity and toxicity of 30 active compounds at a single concentration (Figure 6 and Table 8). As some of the aniline derivatives reacted with Ehrlich’s reagent (p-dimethylaminobenzaldehyde, p-DMAB) used to quantify kynurenine, the kynurenine content of these samples was determined by HPLC. To be able to detect also weak inhibition, compounds were tested at the high concentration of 200 µM (Figure 6A and B, filled bars), except for less soluble compounds (52, 148, 149 and 153), which were tested at a concentration of 50 µM (Figure 6A and B, empty bars).
Following DMSO (negative control) or inhibitor treatments, apoptotic cells were detected by 4′,6-diamidino-2-phenylindole (DAPI) staining. Briefly, after 7 h of incubation, cells were washed with PBS, resuspended in PBS with 1 µg/mL DAPI and immediately analysed using a BD LSR II cytometer. A 405 nm laser with 450/50 nm bandpass filter was used to collect data.

In a further series the target is T2, hIDO1 (Homo sapiens, UniProt P14902).
T2 construct: The full ORF of hIDO1 was cloned into the mammalian expression vector pcDNA6/myc-His; myc-His (vector-encoded); host or cells: HEK 293 T
As to the kind of experiment: Cellular hIDO1 inhibition (kynurenine production) in transiently transfected HEK 293 T cells. Type of series: cell-based. As to the method: as §1
The cDNA encoding hIDO1 (NCBI, NM 0021464.3) was purchased from Origene as pCMV6-Entry vector (RC206592). The full ORF of hIDO1 was cloned into the mammalian expression vector pcDNA6/myc-His from Invitrogen. Human embryonic kidney 293 T (HEK 293 T) cells were transiently transfected with the plasmid construct encoding hIDO1. A 75 cm^2 flask containing HEK 293 T cells at a confluency of 70% was transfected with jetPEI DNA transfection reagent (Polyplus-transfection), according to manufacturer’s protocol. A total of 20 µg of pcDNA-IDO1 along with 5 µg of pcDNA-GFP plasmid were used for the transfection; GFP was used to evaluate transfection efficiency prior to the cellular assays. 16–18 h post-transfection the 293 T cells were detached with trypsin, centrifuged, and re-suspended in 25 mL of DMEM medium without phenol red, supplemented with penicillin and streptomycin, 10% foetal bovine serum and 1 mM pyruvate (Gibco). Subsequently, 100 µL of cells were distributed to each well of two 96-well round-bottom plates that had been pre-loaded with 100 µL DMEM and the small organic test molecule in DMSO (for a final DMSO concentration of 2%). DMEM medium contains 78 µM L-Trp and was supplemented with 500 µM of L-Trp. Cells transfected with hIDO1 were incubated for 7 h at 37 °C in a CO2 incubator. The reaction was stopped in its linear phase by adding trichloroacetic acid (TCA) to the medium at a final concentration of 4%. Plates were centrifuged for 15 min at 4,000 rpm. 100 µL of supernatant was added to 100 µL of 2% (w/v) DMAB in glacial acetic acid. After 10 min the absorbance was measured at a wavelength of 480 nm to detect kynurenine formation. Alternatively, kynurenine content was determined by HPLC as done for the enzymatic assay.

Values joined by “and” are separate entries in the source; they are usually repeats but may differ in a detail not shown here. Equal entries are not always repeated.

T2 sequence (P14902 whole entry): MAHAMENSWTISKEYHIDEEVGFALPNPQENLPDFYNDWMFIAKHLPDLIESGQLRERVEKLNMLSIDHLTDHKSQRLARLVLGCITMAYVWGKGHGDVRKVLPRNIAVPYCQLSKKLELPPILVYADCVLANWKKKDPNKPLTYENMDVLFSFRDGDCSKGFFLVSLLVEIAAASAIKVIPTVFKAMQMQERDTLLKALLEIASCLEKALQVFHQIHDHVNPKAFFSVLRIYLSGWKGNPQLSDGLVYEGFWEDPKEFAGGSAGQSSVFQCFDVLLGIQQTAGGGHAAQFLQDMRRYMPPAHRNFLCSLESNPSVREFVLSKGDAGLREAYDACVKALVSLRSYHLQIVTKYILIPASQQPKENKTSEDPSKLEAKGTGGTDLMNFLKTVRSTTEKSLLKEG
T1 sequence (P14902 whole entry): as above

As for `c1ccc(CCOc2ccccc2-c2c[nH]nn2)cc1` [Compound 26, 4–(2-Phenethoxyphenyl)-1,2,3-triazole], the melting point is 91 to 93 °C. Moreover, the IC50 in series [1] is over 100 µM.

`OC(COc1ccccc1-c1cnn[nH]1)c1ccccc1` (stereo not drawn) [Compound 27, 2–(2-(1H-1,2,3-triazol-5-yl)phenoxy)-1-phenylethan-1-ol] returned a melting point of 153 to 155 °C. Moreover, the half-inhibitory concentration (IC50) in series [1] is over 500 µM.

`c1ccc(CCNc2ccccc2-c2cnn[nH]2)cc1` [Compound 28]: the melting point fell in the range of 129 to 132 °C. In addition, in series [1], the IC50 was over 250 µM.

Turning to `Oc1ccc(F)cc1-c1cnn[nH]1` [Compound 34, 4-Fluoro-2-(1H-1,2,3-triazol-5-yl)phenol], the melting point lay within 186 to 188 °C. In addition, in series [1], the IC50 is 0.14 µM and the “LE [kcal/mol/HA]” value amounted to 0.72 kcal/mol/HA.

On to `Cc1ccc(O)c(-c2cnn[nH]2)c1` [Compound 35, 4-Methyl-2-(1H-1,2,3-triazol-5-yl)phenol], for which the melting point was in the range of 160 to 162 °C. In series [1], the IC50 is 0.55 µM and the “LE [kcal/mol/HA]” value came to 0.66 kcal/mol/HA.

Consider `CCc1ccc(O)c(-c2cnn[nH]2)c1` [Compound 36, 4-Ethyl-2-(1H-1,2,3-triazol-5-yl)phenol], for which the melting point fell in the range of 71 to 73 °C. In addition, in series [1], the IC50 came out at 0.25 µM and the “LE [kcal/mol/HA]” value turned out to be 0.64 kcal/mol/HA.

Regarding `CCCc1ccc(O)c(-c2cnn[nH]2)c1` [Compound 37, 4-Propyl-2-(1H-1,2,3-triazol-5-yl)phenol], the melting point was in the range of 138 to 140 °C. Also, in series [1], the IC50 came out at 0.75 µM and the “LE [kcal/mol/HA]” value turned out to be 0.56 kcal/mol/HA.

`Clc1ccc(-c2c[nH]nn2)c(Cl)c1` [Compound 48, 4–(2,4-Dichlorophenyl)-1,2,3-triazole]: the “Tox. [%]” value with HEK 293 T cells was 0 (0) %. Further, in series [1], the IC50 turned out to be 31 µM and the “LE [kcal/mol/HA]” value was found to be 0.47 kcal/mol/HA. This molecule also displayed an inhibition at 200 µM on hIDO1 of 63%.

As for `Clc1ccc(-c2c[nH]nn2)cc1Cl` [Compound 49, 4–(3,4-Dichlorophenyl)-1,2,3-triazole], in the series on HEK 293 T cells, the “Tox. [%]” value is on record as 0 (0) %. In series [1], the IC50 amounted to 51 µM and the “LE [kcal/mol/HA]” value turned out to be 0.45 kcal/mol/HA. In addition, the inhibition at 200 µM against hIDO1 stood at 65%.

In the case of `Brc1ccc(Nc2c[nH]nn2)cc1` [Compound 78, N-(4-Bromophenyl)-1,2,3-triazol-4-amine, reference compound], the “Tox. [%]” value in the series on HEK 293 T cells was 0 (0) %. In series [1], the IC50 stood at 52 µM and the “LE [kcal/mol/HA]” value came out at 0.45 kcal/mol/HA. This molecule had an inhibition at 200 µM at hIDO1 of 97%.

In the case of `O=C(c1ccc(Cl)cc1)c1cnn[nH]1` [Compound 102, (4-Chlorophenyl)(1H-1,2,3-triazol-5-yl)methanone], in the series on HEK 293 T cells, the “Tox. [%]” value was 0 (0) %. Also, in series [1], the IC50 was found to be 31 µM and the “LE [kcal/mol/HA]” value came out at 0.44 kcal/mol/HA. For the same molecule, the inhibition at 200 µM against hIDO1 came to 37%.

With `COc1ccc(C(=O)c2cnn[nH]2)cc1` [Compound 105, (4-Methoxyphenyl)(1H-1,2,3-triazol-5-yl)methanone], the “Tox. [%]” value in the series on HEK 293 T cells is 0 (0) %. In series [1], the IC50 worked out at 200 µM and the “LE [kcal/mol/HA]” value came out at 0.34 kcal/mol/HA. On hIDO1, this molecule gave an inhibition at 200 µM of 22%.

As to `O=C(c1cnn[nH]1)c1ccccc1O` [Compound 106, (2-Hydroxyphenyl)(1H-1,2,3-triazol-5-yl)methanone], the “Tox. [%]” value with HEK 293 T cells is 0 (0) %. Also, in series [1], the IC50 is 125 µM and 130 µM; the “LE [kcal/mol/HA]” value was found to be 0.38 kcal/mol/HA. Besides, testing at 200 µM on hIDO1 gave an inhibition of 12%.

For `O=C(c1ccc(Br)cc1)c1cnn[nH]1` [Compound 109, (4-Bromophenyl)(1H-1,2,3-triazol-5-yl)methanone], in the series on HEK 293 T cells, the “Tox. [%]” value was 0 (0) %. In addition, in series [1], the IC50 is 13 µM and the “LE [kcal/mol/HA]” value came to 0.48 kcal/mol/HA. In addition, at hIDO1, 200 µM produced 55% inhibition.

For the molecule `O=C(c1ccc(F)cc1)c1cnn[nH]1` [Compound 110, (4-Fluorophenyl)(1H-1,2,3-triazol-5-yl)methanone], the “Tox. [%]” value in the series with HEK 293 T cells is 0 (0) %. In addition, in series [1], the IC50 was 185 µM and 190 µM; the “LE [kcal/mol/HA]” value is on record as 0.36 kcal/mol/HA. Besides, testing at 200 µM against hIDO1 gave an inhibition of 12%.

Regarding `O=C(c1cnn[nH]1)c1ccc(Cl)cc1O` [Compound 112, (4-Chloro-2-hydroxyphenyl)(1H-1,2,3-triazol-5-yl)methanone], the “Tox. [%]” value in the series on HEK 293 T cells is given as 0 (0) %. Besides, in series [1], the 50% inhibitory concentration (IC50) was 11 µM and the “LE [kcal/mol/HA]” value was determined as 0.45 kcal/mol/HA. For the same molecule, the inhibition at 200 µM against hIDO1 worked out at 32%.

Consider `O=C(c1cnn[nH]1)c1ccco1` [Compound 114, Furan-2-yl(1H-1,2,3-triazol-5-yl)methanone], for which the “Tox. [%]” value with HEK 293 T cells is listed as 0 (0) %. In series [1], the IC50 was found to be 230 µM and the “LE [kcal/mol/HA]” value amounted to 0.41 kcal/mol/HA. At hIDO1, this molecule yielded an inhibition at 200 µM of 20%.

Turning to `O=C(c1ccoc1)c1cnn[nH]1` [Compound 115, Furan-3-yl(1H-1,2,3-triazol-5-yl)methanone], the “Tox. [%]” value in the series with HEK 293 T cells was 0 (0) %. In addition, in series [1], the IC50 turned out to be 16 µM and the “LE [kcal/mol/HA]” value worked out at 0.55 kcal/mol/HA. The inhibition at 200 µM against hIDO1 came to 73%.

Take `O=C(c1cnn[nH]1)c1cccs1` [Compound 116, Thiophen-2-yl(1H-1,2,3-triazol-5-yl)methanone]: in the series on HEK 293 T cells, the “Tox. [%]” value is 0 (0) %. Also, in series [1], the IC50 came to 17 µM and the “LE [kcal/mol/HA]” value is 0.54 kcal/mol/HA. Besides, 200 µM produced 62% inhibition on hIDO1.

Take `O=C(c1ccsc1)c1cnn[nH]1` [Compound 117, Thiophen-3-yl(1H-1,2,3-triazol-5-yl)methanone]: in the series with HEK 293 T cells, the “Tox. [%]” value was 0 (0) %. In series [1], the IC50 was 67 µM and 68 µM; the “LE [kcal/mol/HA]” value stood at 0.47 kcal/mol/HA. This molecule also showed an inhibition at 200 µM on hIDO1 of 23%.

Turning to `O=C(c1cscn1)c1cnn[nH]1` [Compound 118, Thiazol-4-yl(1H-1,2,3-triazol-5-yl)methanone], the “Tox. [%]” value in the series with HEK 293 T cells was 0 (0) %. In series [1], the IC50 is 81 µM and 82 µM; the “LE [kcal/mol/HA]” value is listed as 0.46 kcal/mol/HA. This molecule also had an inhibition at 200 µM at hIDO1 of 17%.

Turning to `O=C(c1cccnc1)c1cnn[nH]1` [Compound 121, Pyridin-3-yl(1H-1,2,3-triazol-5-yl)methanone], the “Tox. [%]” value in the series on HEK 293 T cells is 0 (0) %. Besides, in series [1], the IC50 amounted to 650 µM and the “LE [kcal/mol/HA]” value worked out at 0.33 kcal/mol/HA. Besides, the inhibition at 200 µM at hIDO1 was found to be 3.9%.

For `Nc1c(Cl)cccc1-c1nc[nH]n1` [Compound 141, 2-Chloro-6-(1H-1,2,4-triazol-3-yl)aniline], the “Tox. [%]” value with HEK 293 T cells is 13 (4) %. In addition, in series [1], the IC50 was found to be 29 µM and the “LE [kcal/mol/HA]” value worked out at 0.48 kcal/mol/HA. Further, the inhibition at 200 µM against hIDO1 is 82%.

For the molecule `Nc1cccc(N)c1-c1nc[nH]n1` [Compound 142, 2-(1H-1,2,4-triazol-3-yl)benzene-1,3-diamine], the “Tox. [%]” value with HEK 293 T cells is 11 (0.4) %. In series [1], the IC50 was 31 µM and the “LE [kcal/mol/HA]” value turned out to be 0.47 kcal/mol/HA. Further, at 200 µM the inhibition on hIDO1 was 56%.

For `CC(=O)Nc1ccc(Cl)cc1-c1nc[nH]n1` [Compound 146, N-(4-Chloro-2-(1H-1,2,4-triazol-3-yl)phenyl)acetamide], the “Tox. [%]” value in the series with HEK 293 T cells is 0 (0) %. For the same molecule, in series [1], the IC50 is 425 µM and 420 µM; the “LE [kcal/mol/HA]” value stood at 0.29 kcal/mol/HA. The same molecule returned an inhibition at 200 µM on hIDO1 of 89%.

Broadly, the IC50 is the point on the concentration scale where inhibition reaches its midpoint. By melting point is commonly meant the temperature of the solid-liquid transition. As a reminder, the inhibition is the share of the control response that was lost under treatment.
